Patent US20240287082A1, “NEW BENZODIAZEPINE DERIVATIVES AS GABA A GAMMA1 PAM” (Hoffmann-La Roche Inc., priority 2021, published 2024)
Like-named read-outs stand apart in the source and are kept apart here.

Assays:
[1] = biological target: human GABAA α5β2γ1 receptor (Homo sapiens (Human), UniProt P31644+Q8N1C3); experiment: Radioligand binding assay, competition for [3H]RO7239181, γ1-containing GABAA subtype α5β2γ1
Procedure: The affinity of compounds at GABAA γ1 subunit-containing receptors was measured by competition for [^3H]RO7239181 (67.3 Ci/mmol; Roche) binding to membranes from HEK293F cells (ThermoFisher R^79007) expressing human (transiently transfected) receptors of composition α5β2γ1, α2β2γ1, α1β2γ1. For better protein expression of the α2 subunit-containing receptors, the 28 amino acid long signal peptide (Met1 to Ala28)of the human GABAA α2 subunit was substituted by the 31 amino acid long signal peptide (Met1 to Ser31) of human GABAA α5 subunit.
(§1) Harvested pellets from HEK293F cells expressing the different GABAA receptor subtypes were resuspended in Mannitol Buffer pH 7.2-7.4 (Mannitol 0.29M, Triethylamine 10 mM, Acetic acid 10 mM, EDTA 1 mM plus protease inhibitors (20 tablets Complete, Roche Diagnostics Cat. No. 05 056 489 001 per liter)), washed two times and then resuspended at 1:10 to 1:15 dilution in the same buffer. Cell disruption was performed by stirring the suspension in a Parr vessel #4637 at 435 psi for 15 minutes, and then the suspensions were centrifuged at 1000×g for 15 minutes at 4° C. (Beckman Avanti J-HC: rotor JS-4.2). The supernatant (S1) was transferred in a 21 Schott flask and the pellet (P1) was resuspended with Mannitol Buffer up to 175 ml. The resuspended pellet was transferred into a 250 ml Corning centrifugal beaker and centrifuged at 1500×g for 10 minutes at 4° C. (Beckman Avanti J-HC: rotor JS-4.2). The supernatant (S1) was then transferred in the 21 Schott flask and the pellet was discarded. The supernatants (S1) were centrifuged in 500 ml Beckman polypropylene centrifugal beaker at 15 000×g for 30 minutes at 4° C. (Beckman Avanti J-20 XP: rotor JLA-10.500). The pellet (P2) was resuspended with Mannitol Buffer 1:1 and frozen at −80° C. The supernatant (S2) was centrifuged in 100 ml Beckman polypropylene centrifugal tubes at 48000×g for 50 minutes at 4° C. (Beckman Avanti J-20 XP: rotor JA-18). The supernatant (S3) was discarded and the pellet (P3) was resuspended with 1:1 Mannitol Buffer. The P2 and P3 protein concentration was determined with the BIORAD Standard assay method with bovine serum albumin as standard and measured on the NANO-Drop 1000. The membrane suspension was aliquots (500 μl per tube) and stored at −80° C. until required.
(§2) Membrane homogenates were resuspended and polytronised (Polytron PT1200E Kinematica AG) in Potassium Phosphate 10 mM, KCl 100 mM binding buffer at pH 7.4 to a final assay concentration determined with a previous experiment.
Radioligand binding assays were carried out in a volume of 200 μL (96-well plates) which contained 100 μL of cell membranes, [3H]RO7239181 at a concentration of 1.5 nM (α5β2γ1) or 20-30 nM (α1β2γ1, α2β2γ1) and the test compound in the range of [0.3-1000]×10^−9 M. Nonspecific binding was defined by 10×10^−6 (α5β2γ1) and 30×10^−6 M RO7239181 and typically represented less than 5% (α5β2γ1) and less than 20% (α1β2γ1, α2β2γ1) of the total binding. Assays were incubated to equilibrium for 1 hour at 4° C. and then, membranes were filtered onto unifilter (96-well white microplate with bonded GF/C filters preincubated 20-50 minutes in 0.3% Polyethylenimine) with a Filtermate 196 harvester (Packard BioScience) and washed 4 times with cold Potassium Phosphate 10 mM pH 7.4, KCl 100 mM binding buffer. After anhydrousing, filter-retained radioactivity was detected by liquid scintillation counting. Ki values were calculated using Excel-Fit (Microsoft) and are the means of two determinations.

[2] = biological target: human GABAA α2β2γ1 receptor (Homo sapiens (Human), UniProt P47869+Q8N1C3); experiment: Radioligand binding assay, competition for [3H]RO7239181, γ1-containing GABAA subtype α2β2γ1; conditions: for γ2/γ1 Selectivity Ratio: Ki α1β3γ2 (nM)/Ki α2β2γ1 (nM); for LogSel: Log[Ki α1β3γ2 (nM)/Ki α2β2γ1 (nM)]
Procedure: The affinity of compounds at GABAA γ1 subunit-containing receptors was measured by competition for [^3H]RO7239181 (67.3 Ci/mmol; Roche) binding to membranes from HEK293F cells (ThermoFisher R^79007) expressing human (transiently transfected) receptors of composition α5β2γ1, α2β2γ1, α1β2γ1.
as §1, §2
Assays were incubated to equilibrium for 1 hour at 4° C. and then, membranes were filtered onto unifilter (96-well white microplate with bonded GF/C filters preincubated 20-50 minutes in 0.3% Polyethylenimine) with a Filtermate 196 harvester (Packard BioScience) and washed 4 times with cold Potassium Phosphate 10 mM pH 7.4, KCl 100 mM binding buffer. After anhydrousing, filter-retained radioactivity was detected by liquid scintillation counting. Ki values were calculated using Excel-Fit (Microsoft) and are the means of two determinations.

[3] = biological target: human GABAA α1β3γ2 receptor (Homo sapiens (Human), UniProt P14867+P18507); experiment: Radioligand binding assay, competition for [3H]Flumazenil, γ2-containing GABAA subtype α1β3γ2
Procedure: The affinity of compounds at GABAA γ2 subunit-containing receptors was measured by competition for [^3H]Flumazenil (81.1 Ci/mmol; Roche) binding to HEK293F cells expressing human (transiently transfected) receptors of composition α1β3γ2.
Harvested pellets from HEK293F cells expressing the different GABAA γ2 receptor subtypes were resuspended in Mannitol Buffer pH 7.2-7.4 and processed as described above for the cells expressing the GABAA γ1 subunit-containing receptors.
Assays were incubated to equilibrium for 1 hour at 4° C. and harvested onto GF/C uni-filters (Packard) by filtration using a Packard harvester and washing with ice-cold wash buffer (50 mM Tris; pH 7.5). After anhydrousing, filter-retained radioactivity was detected by liquid scintillation counting. Ki values were calculated using Excel-Fit (Microsoft) and are the means of two determinations.

h-GABA-A α2β2γ1 = h-GABA-A α2β2γ1 (Homo sapiens (Human), UniProt P47869+Q8N1C3); experiment: Two-electrode voltage clamp electrophysiology in Xenopus oocytes expressing GABAA receptors, modulation of GABA EC20 current; type: cell-based; conditions: for Efficacy (GABA) %: % modulation of GABA EC20 = 100*(Fold increase−1), compound at 30-fold Ki α2β2γ1; for Fold increase h-GABA-A α2β2γ1 oocyte @ 30-fold Ki: Xenopus oocytes, GABA EC20, test compound at approx. 30-fold its Ki α2β2γ1; for potentiation of the GABA-induced current: α2β2γ1 GABAA receptor subtype expressing oocytes, reference PAMs
Procedure: Xenopus laevis oocytes at maturation stages V-VI were used for the expression of cloned mRNA encoding GABAA receptor subunits. Oocytes ready for RNA micro-injection were bought from Ecocyte, Castrop-Rauxel, Germany and stored in modified Barth's medium (composition in mM: NaCl 88, KCl 1, NaHCO3 2.4, HEPES 10, MgSO4 0.82, CaNO3 0.33, CaCl2 0.33, pH=7.5) at 20° C. until the experiment.
Oocytes were plated in 96-well plates for microinjection using the Roboinject automated instrument (MultiChannelSystems, Reutlingen, Germany). Approximately 50 nL of an aqueous solution containing the RNA transcripts for the subunits of the desired GABAA receptor subtype was injected into each oocyte. […] Oocytes were kept in modified Barth's medium (composition in mM: NaCl 88, KCl 1, NaHCO3 […], HEPES 10, MgSO4 0.82, CaNO3 0.33, CaCl2 0.33, pH=7.5) at 20° C. until the experiment.
Electrophysiological experiments were performed using the Roboocyte instrument (MultiChannelSystems, Reutlingen, Germany) on days 3 to 5 after the micro-injection of mRNA. During the experiment the oocytes were constantly superfused by a solution containing (in mM) NaCl 90, KCl 1, HEPES 5, MgCl2 1, CaCl2 1 (pH 7.4). Oocytes were impaled by two glass microelectrodes (resistance: 0.5-0.8 MΩ) which were filled with a solution containing KCl 1M+K-acetate 1.5 M and voltage-clamped to −80 mV. The recordings were performed at room temperature using the Roboocyte two-electrode voltage clamp system (Multichannelsystem). After an initial equilibration period of 1.5 min GABA was added for 1.5 min at a concentration evoking approximately 20% of a maximal current response (EC20). After another rest interval of 2.5 min GABA was again added evoking a response of similar amplitude and shape. […] Current traces were recorded at a digitization rate of 10 Hz during and shortly before and after the GABA application.
Each compound and concentration was tested on at least 3 oocytes. Different oocytes were used for different compound concentrations.
For the analysis, the digitized current traces of the first and second GABA response were superimposed and, if necessary, rescaled to equal maximal amplitudes. The ratio between the two responses during the time interval of test compound application was calculated point by point. The extremum of the resulting “ratio trace” was taken as the efficacy (“Fold increase”) of the compound expressed as “% modulation of GABA EC20” (100*(Fold increase−1)).

[4] = read-out: Ki h-GABAA α2β2γ1, Table 2, membranes of HEK293F cells, [3H]RO7239181

| SMILES | Ki [1] [nM] | Ki [2] [nM] | γ2/γ1 Selectivity Ratio [2] | LogSel [2] | Ki [2, 4] [nM] | Ki [3] [nM] | Efficacy (GABA) % (h-GABA-A α2β2γ1) [%] | Fold increase h-GABA-A α2β2γ1 oocyte @ 30-fold Ki (h-GABA-A α2β2γ1) | LogSel ([2]; Table 3) | potentiation of the GABA-induced current (h-GABA-A α2β2γ1) [%] | γ2/γ1 Selectivity Ratio ([2]; Table 3) |
| --- | --- | --- | --- | --- | --- | --- | --- | --- | --- | --- | --- |
| CCc1cn2c(nc1=O)[C@H](C)N=C(c1c(F)cccc1F)c1c-2ccc(Cl)c1Cl [Example 14, (5S)-8,9-dichloro-7-(2,6-difluorophenyl)-2-ethyl-5-methyl-5H-pyrimido[1,2-a][1,4]benzodiazepine-3-one] | 2.3 | 15.6 | 58.4 | 1.77 | 15.6 | 909 | 66 | 1.66 | – | – | – |
| Cc1nnc2n1-c1ccc(Cl)cc1C(c1ccccc1)=NC2 [Alprazolam, reference compound] | – | – | – | – | – | – | – | – | −2.3 | – | – |
| O=c1ccn2c(n1)CN=C(c1c(F)cccc1F)c1c-2ccc(Cl)c1Br [Example 17, 8-bromo-9-chloro-7-(2,6-difluorophenyl)-5H-pyrimido[1,2-a][1,4]benzodiazepin-3-one] | 1 | 13.7 | 36.9 | 1.57 | 13.7 | 507 | 79 | 1.79 | – | – | – |
| O=c1ccn2c(n1)CN=C(c1c(F)cccc1F)c1c-2ccc(Br)c1Cl [Example 12, 9-bromo-8-chloro-7-(2,6-difluorophenyl)-5H-pyrimido[1,2-a][1,4]benzodiazepin-3-one] | 0.7 | 4.6 | 70.5 | 1.85 | 4.6 | 322 | 65 | 1.65 | – | – | – |
| Cc1nnc2n1-c1ccc(Cl)cc1C(c1ccccc1Cl)=NC2 [Triazolam, reference compound] | – | – | – | – | – | – | – | – | −1.5 | ~60 | – |
| O=c1ccn2c(n1)CN=C(c1ccccc1F)c1cc(Cl)ccc1-2 [RE-A, 9-chloro-7-(2-fluorophenyl)-5H-pyrimido[1,2-a][1,4]benzodiazepin-3-one, reference compound] | – | 123 | – | – | – | 27.8 | – | – | −0.64 | – | 0.23 |
| C[C@@H]1N=C(c2c(F)cccc2F)c2c(ccc(Cl)c2Br)-n2ccc(=O)nc21 [Example 6, (5S)-8-bromo-9-chloro-7-(2,6-difluorophenyl)-5-methyl-5H-pyrimido[1,2-a][1,4]benzodiazepin-3-one] | 4.8 | 49.9 | 35.7 | 1.55 | 49.9 | 1780 | 121 | 2.21 | – | – | – |
| C[C@@H]1N=C(c2c(F)cccc2F)c2c(ccc(Br)c2Cl)-n2cc(Br)c(=O)nc21 [Example 16, (5S)-2,9-dibromo-8-chloro-7-(2,6-difluorophenyl)-5-methyl-5H-pyrimido[1,2-a][1,4]benzodiazepin-3-one] | 1.6 | 8.3 | 188.0 | 2.27 | – | 1570 | 71 | 1.71 | – | – | – |
| C[C@@H]1N=C(c2c(F)cccc2F)c2c(ccc(Cl)c2Br)-n2cc(Br)c(=O)nc21 [Example 23, (5S)-2,8-dibromo-9-chloro-7-(2,6-difluorophenyl)-5-methyl-5H-pyrimido[1,2-a][1,4]benzodiazepin-3-one] | 6.8 | 74.1 | 40.5 | 1.61 | 74.1 | 3000 | 107 | 2.07 | – | – | – |
| CN1C(=O)CN=C(c2ccccc2F)c2cc([N+](=O)[O-])ccc21 [Flunitrazepam, reference compound] | – | – | – | – | – | – | – | – | – | ~60 | – |
| Cc1ncc2n1-c1ccc(Cl)cc1C(c1ccccc1F)=NC2 [Midazolam, reference compound] | – | – | – | – | – | – | – | – | −2.2 | ~60 | – |
